In patent US7858630B2, “D3 and 5-HT2A receptor modulators” (Hoffmann-La Roche Inc., priority 2008, dated 2010) one finds Ki data, which are given here for 17 compounds.

Assay [1] addresses T1, human dopamine D2 receptor (Homo sapiens, UniProt P14416).
T1 construct: expressed in transfected cells; host or cells: HEK-293 EBNA cells, transient transfection; membrane preparation
The experiment in a line: Radioligand binding ([3H]-spiperone) to membranes of HEK-293 EBNA cells expressing human D2 receptor. The conditions noted are these: human D2, 0.7 nM [3H]-spiperone, HEK-293 EBNA membranes, 1 h at RT. How it is done:
(§1) The ability of the compounds to bind to the 5-HT2A, D3 and D2 receptors was determined using radioligand binding to cloned receptors selectively expressed in HEK-293 EBNA cells.
(§2) Membrane Preparation for Human D2, Human D3 and Human 5-HT2A Receptors
(§3) HEK-293 EBNA cells were transiently transfected with expression plasmids encoding for the human D2 or D3 dopamine- or for the human 5-HT2A serotonin receptor, respectively. The cells were harvested 48 h post-transfection, washed three times with cold PBS and stored at −80° C. prior to use. The pellet was suspended in cold 50 mM Tris-HCl buffer containing 10 mM EDTA (pH 7.4) and homogenized with a Polytron (Kinematica AG, Basel, Switzerland) for 20-30 sec at 12.000 rpm. After centrifugation at 48.000×g for 30 min at 4° C., the pellet was resuspended in cold 10 mM Tris-HCl buffer containing 0.1 mM EDTA (pH 7.4), homogenized, and centrifuged as above. This pellet was further resuspended in a smaller volume of ice cold 10 mM Tris-HCl buffer containing 0.1 mM EDTA (pH 7.4) and homogenized with a Polytron for 20-30 sec at 12.000 rpm. The protein content of this homogenate was determined with the Bio-Rad (Bradford) Protein Assay (Biorad Laboratories GmbH, München, Germany) according to the instructions of the manufacturer using gamma globulin as the standard. This homogenate was stored at −80° C. in aliquots and thawed immediately prior to use.
(§4) Radioligand Binding Assay Conditions
(§5) Aliquots of membrane preparations were thawed at RT, resupended in assay buffer (D2, D3: 50 mM Tris-HCl, 120 mM NaCl, 5 mM MgCl2, 1 mM EDTA, 5 mM KCl, 1.5 mM CaCl2, pH=7.4; 5-HT2A: 50 mM Tris-HCl, 10 mM MgCl2, 1 mM EGTA, pH=7.4), homogenized with a Polytron for 20-30 sec at 12.000 rpm and adjusted to a final concentration of approximately 7.5 μg protein/well (D2, D3) and 15 μg protein/well (5-HT2A), respectively.
(§6) The binding affinity (Ki) of the compounds was determined using radioligand binding. Membranes were incubated in a total volume of 200 μl with a fixed concentration of radioligand (final concentration approximately 0.7 nM [^3H]-spiperone for D2, 0.5 nM [^3H]-spiperone for D3, and 1.1 nM [^3H]-ketanserin for 5-HT2A) and ten concentrations of test compound in ranging between 10 μM-0.1 nM for 1 h at RT. At the end of the incubation, the reaction mixtures were filtered on to unifilter 96-well white microplates with bonded GF/C filters (Packard BioScience, Zurich, Switzerland; preincubated for 1 h in 0.1% polyethylenimine (PEI) in assay buffer) with a Filtermate 196 harvester (Packard BioScience) and washed 3 times with cold assay buffer. The nonspecific binding was determined with equally composed reaction mixtures in the presence of 10 μM unlabelled spiperone. Per well 45 μl of Microscint 40 (Perkin Elmer, Schwerzenbach, Switzerland) was added, plates for sealed, shaken for 20 min and counted for 3 min on a Topcount Microplate Scintillation Counter (Canberra Packard SA, Zurich, Switzerland) with quenching correction.
(§7) The CPM value for each duplicate of a concentration of competing compound was averaged (y1), then the % specific binding was calculated according to the equation (((y1−non-specific)/(total binding-non-specific))×100). Graphs were plotted with the % specific binding using XLfit, a curve fitting program that iteratively plots the data using Levenburg Marquardt algorithm. The single site competition analysis equation used was y=A+((B−A)/(1+((x/C)^D))), where y is the % specific binding, A is the minimum y, B is the maximum y, C is the IC50, x is the log10 of the concentration of the competing compound and D is the slope of the curve (the Hill Coefficient). From these curves the IC50 (inhibition concentration at which 50% specific binding of the radioligand was displaced) and Hill coefficient were determined. […]

In assay [2] the target is T2, human serotonin 5-HT2A receptor (Homo sapiens, UniProt P28223).
T2 construct: expressed in transfected cells; host or cells: HEK-293 EBNA cells, transient transfection; membrane preparation
The experiment in a line: Radioligand binding ([3H]-ketanserin) to membranes of HEK-293 EBNA cells expressing human 5-HT2A receptor. The settings on record: 1.1 nM [3H]-ketanserin, HEK-293 EBNA membranes, 1 h at RT. How it is done: as §1, §2, §3, §4, §5, §6, §7

The target of assay [3] is T3, human dopamine D3 receptor (Homo sapiens, UniProt P35462).
T3 construct: expressed in transfected cells; host or cells: HEK-293 EBNA cells, transient transfection; membrane preparation
The experiment in a line: Radioligand binding ([3H]-spiperone) to membranes of HEK-293 EBNA cells expressing human D3 receptor. The settings on record: human D3, 0.5 nM [3H]-spiperone, HEK-293 EBNA membranes, 1 h at RT. How it is done:
as §1, §2, §3, §4, §5, §6, §7

T1 sequence (P14416 whole entry): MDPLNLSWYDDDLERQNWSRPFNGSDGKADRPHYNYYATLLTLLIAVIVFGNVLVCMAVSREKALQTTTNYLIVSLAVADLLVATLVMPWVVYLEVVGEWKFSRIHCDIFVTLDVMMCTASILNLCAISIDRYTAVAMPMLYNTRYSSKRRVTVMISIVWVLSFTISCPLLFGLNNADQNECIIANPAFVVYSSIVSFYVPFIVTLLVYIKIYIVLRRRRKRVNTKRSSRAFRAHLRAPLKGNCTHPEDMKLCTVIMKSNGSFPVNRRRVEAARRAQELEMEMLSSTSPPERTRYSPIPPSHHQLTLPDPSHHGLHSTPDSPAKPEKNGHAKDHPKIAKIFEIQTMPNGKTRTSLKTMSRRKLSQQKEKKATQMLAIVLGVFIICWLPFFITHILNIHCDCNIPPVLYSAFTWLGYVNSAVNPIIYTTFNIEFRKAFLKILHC
T2 sequence (P28223 whole entry): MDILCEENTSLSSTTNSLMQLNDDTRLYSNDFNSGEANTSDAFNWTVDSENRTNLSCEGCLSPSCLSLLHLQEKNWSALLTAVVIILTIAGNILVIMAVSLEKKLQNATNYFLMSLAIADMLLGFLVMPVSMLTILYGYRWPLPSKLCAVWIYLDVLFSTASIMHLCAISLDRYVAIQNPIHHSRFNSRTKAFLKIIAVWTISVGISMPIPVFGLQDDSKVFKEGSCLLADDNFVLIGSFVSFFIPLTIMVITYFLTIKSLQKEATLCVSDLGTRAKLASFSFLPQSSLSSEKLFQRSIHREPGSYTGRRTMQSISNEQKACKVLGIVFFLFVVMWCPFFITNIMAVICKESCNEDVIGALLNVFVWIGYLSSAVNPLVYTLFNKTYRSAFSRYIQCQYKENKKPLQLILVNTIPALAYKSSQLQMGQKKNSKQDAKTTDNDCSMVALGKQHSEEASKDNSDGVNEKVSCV
T3 sequence (P35462 whole entry): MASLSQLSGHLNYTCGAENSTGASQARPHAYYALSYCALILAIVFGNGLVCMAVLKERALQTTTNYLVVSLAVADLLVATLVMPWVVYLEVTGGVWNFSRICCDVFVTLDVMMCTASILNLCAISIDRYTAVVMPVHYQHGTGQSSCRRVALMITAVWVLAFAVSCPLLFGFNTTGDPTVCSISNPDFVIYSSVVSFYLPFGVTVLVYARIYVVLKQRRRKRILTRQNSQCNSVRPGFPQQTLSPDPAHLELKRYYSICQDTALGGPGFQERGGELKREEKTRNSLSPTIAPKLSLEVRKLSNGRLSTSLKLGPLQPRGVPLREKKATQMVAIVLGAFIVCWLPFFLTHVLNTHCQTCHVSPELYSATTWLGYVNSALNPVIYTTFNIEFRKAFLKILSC

Take `CCC(=O)N[C@H]1CC[C@H](CCN2CCN(c3noc4cc(C)ccc34)CC2)CC1` [Example 99, N-trans-(4-{2-[4-(6-Methyl-benzo[d]isoxazol-3-yl)-piperazin-1-yl]-ethyl}-cyclohexyl)-propionamide]: the inhibition constant Ki in assay [1] came out at 207 nM; in assay [2], 5.92 nM; in assay [3], 5.8 nM.

Turning to `O=C(C[C@H]1CC[C@H](O)CC1)N[C@H]1CC[C@H](CCN2CCN(c3noc4cc(Cl)ccc34)CC2)CC1` [Example 43, N-trans-(4-{2-[4-(6-Chloro-benzo[d]isoxazol-3-yl)-piperazin-1-yl]-ethyl}-cyclohexyl)-2-trans-(4-hydroxy-cyclohexyl)-acetamide], the results for the Ki in assay [1], in assay [2] and in assay [3] were 2920 nM, 3.22 nM and 12.5 nM, respectively.

Take `COC1CCN(CC(=O)N[C@H]2CC[C@H](CCN3CCN(c4noc5ccc(F)cc45)CC3)CC2)CC1` [Example 25, N-trans-(4-{2-[4-(5-Fluoro-benzo[d]isoxazol-3-yl)-piperazin-1-yl]-ethyl}-cyclohexyl)-2-(4-methoxy-piperidin-1-yl)-acetamide]: the Ki in assay [1] was 496 nM; in assay [2], 13.3 nM; in assay [3], 14.1 nM.

As to `CO[C@@H]1CC[C@@H](CC(=O)N[C@H]2CC[C@H](CCN3CCN(c4noc5cc(F)c(F)cc45)CC3)CC2)C1` (relative stereo) [Example 65, N-trans-(4-{2-[4-(5,6-Difluoro-benzo[d]isoxazol-3-yl)-piperazin-1-yl]-ethyl}-cyclohexyl)-2-trans-(3-methoxy-cyclopentyl)-acetamide], the inhibition constant Ki in assay [1] came to 822 nM; in assay [2], 4.4 nM; in assay [3], 7.67 nM.

Take `COC(C)CC(=O)N[C@H]1CC[C@H](CCN2CCN(c3noc4cc(Cl)ccc34)CC2)CC1` (stereo partly drawn) [Example 37, N-trans-(4-{2-[4-(6-Chloro-benzo[d]isoxazol-3-yl)-piperazin-1-yl]-ethyl}-cyclohexyl)-3-methoxy-butyramide]: the Ki is 350 nM in assay [1], 7.32 nM in assay [2] and 14.9 nM in assay [3].

`CO[C@H]1CC[C@H](CC(=O)N[C@H]2CC[C@H](CCN3CCN(c4noc5cc(F)c(F)cc45)CC3)CC2)CC1` [Example 58, N-trans-(4-{2-[4-(5,6-Difluoro-benzo[d]isoxazol-3-yl)-piperazin-1-yl]-ethyl}-cyclohexyl)-2-trans-(4-methoxy-cyclohexyl)-acetamide]: the inhibition constant Ki turned out to be 11300 nM in assay [1], 7.59 nM in assay [2] and 14.4 nM in assay [3].

Consider `COc1ccc(C(=O)N[C@H]2CC[C@H](CCN3CCN(c4noc5cc(F)c(Cl)cc45)CC3)CC2)s1` [Example 85, 5-Methoxy-thiophene-2-carboxylic acid N-trans-(4-{2-[4-(5-chloro-6-fluoro-benzo[d]isoxazol-3-yl)-piperazin-1-yl]-ethyl}-cyclohexyl)-amide], for which the Ki came to 368 nM in assay [1], 7.47 nM in assay [2] and 8.2 nM in assay [3].

As for `O=C(N[C@H]1CC[C@H](CCN2CCN(c3noc4cc(F)c(Cl)cc34)CC2)CC1)C1CCC1` [Example 92, Cyclobutanecarboxylic acid N-trans-(4-{2-[4-(5-chloro-6-fluoro-benzo[d]isoxazol-3-yl)-piperazin-1-yl]-ethyl}-cyclohexyl)-amide], the Ki in assay [1] worked out at 4070 nM; in assay [2] it was 11.6 nM; in assay [3] it was 12.4 nM.

As to `CC(=O)N[C@H]1CC[C@H](CCN2CCN(c3noc4cc(F)c(C)cc34)CC2)CC1` [Example 106, N-trans-(4-{2-[4-(6-Fluoro-5-methyl-benzo[d]isoxazol-3-yl)-piperazin-1-yl]-ethyl}-cyclohexyl)-acetamide], the figures for the inhibition constant Ki in assay [1], in assay [2] and in assay [3] were 2380 nM, 31.9 nM and 9.04 nM, respectively.

`O=C(N[C@H]1CC[C@H](CCN2CCN(c3noc4cc(Cl)ccc34)CC2)CC1)C1(O)CC1` [Example 38, 1-Hydroxy-cyclopropanecarboxylic acid N-trans-(4-{2-[4-(6-chloro-benzo[d]isoxazol-3-yl)-piperazin-1-yl]-ethyl}-cyclohexyl)-amide]: the Ki in assay [1] stood at 314 nM; in assay [2] it was 8.19 nM; in assay [3], 12.5 nM.

On to `NC(=O)CC(=O)N[C@H]1CC[C@H](CCN2CCN(c3noc4ccc(F)cc34)CC2)CC1` [Example 17, N-trans-(4-{2-[4-(5-Fluoro-benzo[d]isoxazol-3-yl)-piperazin-1-yl]-ethyl}-cyclohexyl)-malonamide], for which the inhibition constant (Ki) was 592 nM in assay [1], 25.4 nM in assay [2] and 1.83 nM in assay [3].

On to `Cc1ccc2c(N3CCN(CC[C@H]4CC[C@H](NC(=O)CS(C)(=O)=O)CC4)CC3)noc2c1` [Example 105, 2-Methanesulfonyl-N-trans-(4-{2-[4-(6-methyl-benzo[d]isoxazol-3-yl)-piperazin-1-yl]-ethyl}-cyclohexyl)-acetamide], for which the inhibition constant (Ki) is 170 nM in assay [1], 4 nM in assay [2] and 5 nM in assay [3].

Take `CO[C@H]1CC[C@H](C(=O)N[C@H]2CC[C@H](CCN3CCN(c4noc5cc(Cl)ccc45)CC3)CC2)CC1` [Example 54, 4-trans-Methoxy-cyclohexanecarboxylic acid N-trans-(4-{2-[4-(6-chloro-benzo[d]isoxazol-3-yl)-piperazin-1-yl]-ethyl}-cyclohexyl)-amide]: the results for the Ki in assay [1], in assay [2] and in assay [3] were 3850 nM, 8.3 nM and 50.2 nM, respectively.

Turning to `Cc1cc2c(N3CCN(CC[C@H]4CC[C@H](NC(=O)C[C@@H]5COCCO5)CC4)CC3)noc2cc1F` [Example 114, 2-(R)-[1,4]Dioxan-2-yl-N-trans-(4-{2-[4-(6-fluoro-5-methyl-benzo[d]isoxazol-3-yl)-piperazin-1-yl]-ethyl}-cyclohexyl)-acetamide], the Ki was more than 9700 nM in assay [1], 17 nM in assay [2] and 31 nM in assay [3].

For the compound `COCCC(=O)N[C@H]1CC[C@H](CCN2CCN(c3noc4ccccc34)CC2)CC1` [Example 1, N-trans-{4-[2-(4-benzo[d]isoxazol-3-yl-piperazin-1-yl)-ethyl]-cyclohexyl}-3-methoxy-propionamide], the Ki in assay [1] was 347 nM; in assay [2], 4.88 nM; in assay [3], 12.1 nM.

Regarding `O=C(CC1COC1)N[C@H]1CC[C@H](CCN2CCN(c3noc4cc(Cl)ccc34)CC2)CC1` [Example 47, N-trans-(4-{2-[4-(6-Chloro-benzo[d]isoxazol-3-yl)-piperazin-1-yl]-ethyl}-cyclohexyl)-2-oxetan-3-yl-acetamide], the inhibitory constant (Ki) in assay [1] came out at 238 nM; in assay [2], 6.59 nM; in assay [3], 8.14 nM.

`CCC(=O)N[C@H]1CC[C@H](CCN2CCN(c3noc4cc(Cl)c(F)cc34)CC2)CC1` [Example 70, N-trans-(4-{2-{4-(6-Chloro-5-fluoro-benzo[d]isoxazol-3-yl)-piperazin-1-yl]-ethyl}-cyclohexyl)-propionamide]: the results for the Ki in assay [1], in assay [2] and in assay [3] were 852 nM, 68.1 nM and 7.15 nM, respectively.

Broadly, the Ki is the equilibrium dissociation constant of an inhibitor or competing ligand from its target.
